The source of these data is patent US8093028B2, “Engineered glycosyltransferases with expanded substrate specificity” (Wisconsin Alumni Research Foundation, priority 2007, dated 2012).

SMILES strings stand for the structures. ≈ marks a conversion by molar mass, not a printed value. Where two headings read alike, the source gives them in different places.

For one data set, the target named is T1, WT OleD (Streptomyces antibioticus, UniProt Q53685, P55A/R82V/R83E/T84P).
T1 construct: made in house; host or cells: E. coli BL21(DE3)pLysS, plasmid pET28/OleD
Put plainly: Rate of glucoside formation with acceptors (RP-HPLC). The settings on record: 200 μM acceptor, 1 mM UDPG. The format is biochemical. How it is done:
(§1) Enzyme assays for the determination of glycosyl transfer rate to FIG. 1: 4, Table 1: 27-32 were carried out in a total volume of 500 μl 50 mM Tris-HCl (pH8.0) containing 5 mM MgCl2, 200 μM acceptor, 1 mM UDPG, and 50 μg pure enzyme. Aliquots (100 μl) were removed between 0 and 30 min, at which time product formation was still linear with respect to time, and quenched with 90 μl of an 8:1 mixture of ice-cold MeOH/HCl, and centrifuged at 14,000 rpm for 10 min. Supernatants were analyzed by analytical reverse-phase HPLC with a 250 mm×4.6 mm Gemini […] C18 column (Phenomenex, Torrance, Calif.) using a gradient of 10-90% CH3CN in 0.1% trifluoroacetic acid (TFA)/H2O in 20 min at 1 ml/min, with detection at 254 nm. HPLC peak areas were integrated, and the product concentration calculated as a percent of the total peak area. Product identity was confirmed by co-elution with a commercial standard when available and, in all cases, by LC-MS (FIG. 8).
(§2) Reaction conditions for assay of macrolide glycosylation were identical to that for FIG. 1: 1, except that typically, less enzyme was used (1-10 μg) and reactions were quenched with an equal volume of ice-cold MeOH. Centrifuged reaction mixtures were analyzed by analytical reverse-phase HPLC with a Gemini 5μ C18 column (Phenomenex) using a gradient of 0-90% CH3CN in 50 mM NH3COOH over 30 min at 1 ml/min. Products and acceptor macrolide were detected by evaporative light scattering detection (ELSD) using a drift tube temperature of 105° C. and a nitrogen flow of 2.5 ml/min. All products were characterized by APCI LC-MS on an Agilent 1100 Series LC/MSD quadrapole mass spectrometer connected to a UV detector. Quenched reaction mixtures were analyzed by reverse-phase HPLC with a 10 mm×4.6 mm Zorbax Extend 5μ C18 Analytical Guard Column (Agilent Technologies) using an isocratic gradient of 80% MeOH in 2 min at 1 ml/min, with detection at 254 nm.
(§3) Enzyme reactions were carried out in a total volume of 500 μl 50 mM Tris-HCl (pH8.0) containing 5 mM MgCl2, 200 μM acceptor, 1 mM UDPG, and 50 μg pure enzyme. Aliquots (100 μl) were removed between 0 and 30 min, and quenched with 90 μl of an 8:1 mixture of ice-cold MeOH/HCl for activity towards FIG. 1: 4, Table 1: 27-32, or with 90 μl of ice-cold MeOH for activity towards FIG. 1: 1, and the samples centrifuged at 14,000 rpm for 10 min.
(§4) For determination of activity to FIG. 1: 4, Table 1: 27-32, supernatants were analyzed by analytical reverse-phase HPLC with a Gemini 5μ C18 column (Phenomenex) using a gradient of 10-90% CH3CN in 0.1% trifluoroacetic acid (TFA)/H2O in 20 min, with detection at 254 nm. HPLC peak areas were integrated, and the product concentration calculated as a percent of the total peak area. All products were characterized by LC-MS. Mass spectra were obtained using electrospray ionization on an Agilent 1100 HPLC-MSD SL quadrapole mass spectrometer connected to a UV/Vis diode array detector. For LC-MS analysis, quenched reaction mixtures (see below) were analyzed by analytical reverse-phase HPLC with a 250 mm×4.6 mm Gemini 5μ C18 column (Phenomenex, Torrance, Calif.) using a gradient of 10-90% CH3CN in 0.1% formic acid/H2O in 20 min at 1 ml/min, with detection at 254 nm.
as §2, with “For determination” for “Reaction conditions for assay”, “activity toward” for “macrolide glycosylation were identical to that for”, “centrifuged” for “except that typically, less enzyme was used (1-10 μg) and reactions were quenched with an equal volume of ice-cold MeOH. Centrifuged”, “Compounds FIG. 1: 1” for “Products”, “3” for “acceptor macrolide”

A further data set concerns the target T2, OleD P67T (Streptomyces antibioticus, UniProt Q53685, P55A/P67T/R82V/R83E/T84P).
T2 construct: made in house; host or cells: E. coli (site-directed mutant of pET28/OleD)
The description is as above. The format is biochemical. The conditions noted are these: 200 μM acceptor, 1 mM UDPG. The protocol:
as §1, §2, §3, §4
as §2, with “For determination” for “Reaction conditions for assay”, “activity toward” for “macrolide glycosylation were identical to that for”, “centrifuged” for “except that typically, less enzyme was used (1-10 μg) and reactions were quenched with an equal volume of ice-cold MeOH. Centrifuged”, “Compounds FIG. 1: 1” for “Products”, “3” for “acceptor macrolide”

Another data set deals with T3, OleD A242V (Streptomyces antibioticus, UniProt Q53685, A242V/P55A/R82V/R83E/T84P).
T3 construct: made in house; host or cells: E. coli BL21(DE3)pLysS (error-prone PCR clone in pET28a)
The description is as above. The format is biochemical. The conditions noted are these: 200 μM acceptor, 1 mM UDPG. The protocol: as §1, §2, §3, §4
as §2, with “For determination” for “Reaction conditions for assay”, “activity toward” for “macrolide glycosylation were identical to that for”, “centrifuged” for “except that typically, less enzyme was used (1-10 μg) and reactions were quenched with an equal volume of ice-cold MeOH. Centrifuged”, “Compounds FIG. 1: 1” for “Products”, “3” for “acceptor macrolide”

A further data set concerns the target T4, OleD S132F (Streptomyces antibioticus, UniProt Q53685, P55A/R82V/R83E/S132F/T84P).
T4 construct: made in house; host or cells: E. coli (site-directed mutant of pET28/OleD)
The description is as above. The format is biochemical. The conditions noted are these: 200 μM acceptor, 1 mM UDPG. How it is done:
as §1, §2, §3, §4
as §2, with “For determination” for “Reaction conditions for assay”, “activity toward” for “macrolide glycosylation were identical to that for”, “centrifuged” for “except that typically, less enzyme was used (1-10 μg) and reactions were quenched with an equal volume of ice-cold MeOH. Centrifuged”, “Compounds FIG. 1: 1” for “Products”, “3” for “acceptor macrolide”

In a further data set the target is T5, OleD P67T/S132F/A242V (Streptomyces antibioticus, UniProt Q53685, A242V/P67T/S132F).
T5 construct: made in house; host or cells: E. coli (site-directed mutant of pET28/OleD)
The data set is described as above. The format is biochemical. The conditions noted are these: for Rate of glucoside formation, P67T/S132F/A242V: 200 μM acceptor, 1 mM UDPG. How it is done: as §1, with “8). […]” for “8).”
as §3, §4
as §2, with “For determination” for “Reaction conditions for assay”, “activity toward” for “macrolide glycosylation were identical to that for”, “centrifuged” for “except that typically, less enzyme was used (1-10 μg) and reactions were quenched with an equal volume of ice-cold MeOH. Centrifuged”, “Compounds FIG. 1: 1” for “Products”, “3” for “acceptor macrolide”

Data set [1] in a line: Solubility limit of acceptors. The format is physicochemical.

As to `Cc1cc(=O)oc2cc(O)ccc12` [4-Me-umb (4), 7-hydroxy-4-methylcoumarin], on WT OleD, the “Rate of glucoside formation, WT” value is 2.5 mmols/product formed/min/μg enzyme × 10^3. Also, the “Rate of glucoside formation, P67T” value on OleD P67T was 15.7 mmols/product formed/min/μg enzyme × 10^3. Also, the “Rate of glucoside formation, A242V” value at OleD A242V was 5.4 mmols/product formed/min/μg enzyme × 10^3. For the same molecule, the “Rate of glucoside formation, S132F” value at OleD S132F is 6.3 mmols/product formed/min/μg enzyme × 10^3. Besides, the “Rate of glucoside formation, P67T/S132F/A242V” value at OleD P67T/S132F/A242V is on record as 84 mmols/product formed/min/μg enzyme × 10^3. Besides, the “specific activity, fold higher than WT OleD” value at OleD P67T/S132F/A242V (4 and 2 as acceptor/donor) is listed as roughly 30 fold. The “Fold-improvement compared to WT OleD” value at OleD P67T/S132F/A242V (rate of P67T/S132F/A242V versus WT, UDPG donor) was 33 fold. Also, the solubility in data set [1] (aqueous with cosolvent or surfactant or cyclodextrin, in water/DMSO, read-out: solubility limit) is 10 mM (≈ 1760 µg/mL); in data set [1] (enzyme assay buffer (50 mM Tris-HCl with 5 mM MgCl2), pH 8, limited solubility in assay, read-out: solubility), less than 4 mM.

For the molecule `CC(C)=CCc1cc(C(=O)Nc2c(O)c3ccc(O)c(C)c3oc2=O)ccc1O` [novobiocic acid (29), novobiocic acid], at WT OleD, the “Rate of glucoside formation, WT” value is given as 0.24 mmols/product formed/min/μg enzyme × 10^3. Further, the “Rate of glucoside formation, P67T” value at OleD P67T is given as 0.65 mmols/product formed/min/μg enzyme × 10^3. Besides, the “Rate of glucoside formation, A242V” value on OleD A242V is given as 0.33 mmols/product formed/min/μg enzyme × 10^3. Further, at OleD S132F, the “Rate of glucoside formation, S132F” value is listed as 0.49 mmols/product formed/min/μg enzyme × 10^3. Also, on OleD P67T/S132F/A242V, the “Rate of glucoside formation, P67T/S132F/A242V” value is recorded as 1.14 mmols/product formed/min/μg enzyme × 10^3. For the same molecule, the solubility in data set [1] (in kinetic assay, read-out: solubility limit) worked out at 5 mM (≈ 1980 µg/mL).
